Values of other authors in paper PMC8244136, “Integrin αvβ6-targeted MR molecular imaging of breast cancer in a xenograft mouse model” (Cancer Imaging, 2021).

Assays:
[1] = test system: αvβ3; details: selectivity against other integrins
Source text: (§1) Because of the significance of integrin αvβ6 in tumorigenesis and tumor progression, many pioneering experimental studies have focused on αvβ6-targeted ligands, including peptides and non-peptide inhibitors. More recently, a novel sub-nanomolar αvβ6-specific ligand, the nonapeptide cyclo [FRGDLAFp(NMe)K] (referred to as cFK-9) was identified, which is characterized by the RXDLXXL motif sequence.

[2] = test system: integrin αvβ6; details: read-out: αvβ6 binding affinity IC50
Source text: as §1

[3] = test system: αvβ5; details: selectivity against other integrins
Source text: as §1

[4] = test system: αIIbβ3; details: selectivity against other integrins
Source text: as §1

[5] = Source text: as §1
[6] = test system: α5β1; details: selectivity against other integrins
Source text: as §1

cyclo [FRGDLAFp(NMe)K] (head to tail) [cFK-9, sub-nanomolar αvβ6-specific ligand, cyclic RGD nonapeptide with RXDLXXL motif]
IC50 [1]: 632 nM
IC50 [2]: 0.26 nM
IC50 [3]: > 1000 nM
IC50 [4]: > 1000 nM
stability in human plasma [5]: very stable
IC50 [6]: 73 nM
